Data from patent US20250367209A1 (SOUTHERN RESEARCH INSTITUTE, priority 2022, published 2025).
Entries after “also recorded” stand apart in the source; their conditions may differ.

What was measured:
primary neurons = assay: Multi-electrode array, Aβ-induced network hyperexcitability; format: cell-based, rat; settings: one hour preincubation, 500 nM Aβ oligomers, four hours
Excerpt: Primary neuron cultures: All animal procedures were approved by the Institutional Animal Care and Use Committee at the University of Alabama at Birmingham (UAB). As before (Rush, et al. (2020) Neurobiol Dis 134, 104668; Voskobiynyk, et al. (2020) eLife 9, e57354), primary rat neurons were isolated from timed-pregnant Sprague-Dawley rats. Briefly, dams were euthanized with isoflurane anesthesia asphyxiation, and hippocampal tissue was isolated from E19 embryos in Hibernate E, then digested in papain for 10 minutes at 37° C. Neurons were triturated into a single cell suspension in Neurobasal supplemented with B-27, L-Glutamine, and 10% FBS, then plated in 96-well plates coated with PDL and laminin at 30,000 neurons per well in 200 uL medium or in 24-well coated plates with or without coverslips at 50,000 per well. Cultures were maintained at 37° C. with 5% CO2. […]
Multi-electrode arrays: As in a prior study (Voskobiynyk, et al. (2020) eLife 9, e57354), 30,000 neurons were plated per well in a 48-well MEA plate. […] 69 for one hour, then 500 nM Aβ oligomers was applied and neurons were returned to the incubator for four hours before being recorded for 20 more minutes. […] Mean baseline frequency for each well was calculated from unit frequencies, then each unit in the post-treatment recording was normalized to the baseline average of its well. […]

97 kinases = assay: Eurofins DiscoverX ScanEDGE kinase panel; format: biochemical; settings: compound no. 69 at 3 μM; saracatinib stock 30 μM = 1000× testing concentration; activity = <35% of control
Excerpt: 69 and compound no. […] Since Fyn was not included in that panel, a custom panel was completed for Fyn kinase activity.

full-length Tau = full-length Tau (Homo sapiens (Human), UniProt P10636); assay: Isothermal titration calorimetry, full-length Tau; format: binding
Sequence of full-length Tau (P10636 other isoform, or with tags, fused parts or gaps): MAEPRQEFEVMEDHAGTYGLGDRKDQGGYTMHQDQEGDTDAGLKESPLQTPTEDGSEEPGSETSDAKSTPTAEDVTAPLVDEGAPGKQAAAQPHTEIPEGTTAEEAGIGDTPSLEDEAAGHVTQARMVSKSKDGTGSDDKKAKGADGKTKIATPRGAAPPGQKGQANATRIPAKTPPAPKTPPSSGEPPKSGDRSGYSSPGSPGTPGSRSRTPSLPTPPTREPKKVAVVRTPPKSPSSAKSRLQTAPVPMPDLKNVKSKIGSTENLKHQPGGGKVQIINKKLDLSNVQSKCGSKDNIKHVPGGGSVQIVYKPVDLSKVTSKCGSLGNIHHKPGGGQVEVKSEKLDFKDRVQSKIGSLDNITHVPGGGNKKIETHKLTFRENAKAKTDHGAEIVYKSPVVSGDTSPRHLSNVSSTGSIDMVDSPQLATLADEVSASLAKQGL
Excerpt: Human Fyn-SH3 domain with GST-tag at the N-terminus and a Strep-tag II ([…]) at the C-terminus (GST-Fyn-SH3-Strep) was cloned into pPR-IBA1 vector (IBA Lifesciences) (Cochran, et al. (2014) J. Biomol. Screen. 19, 1338-1349). Codon-optimized human 4R2N Tau for E. coli expression with a Strep-tag II at the C-terminus (His-Tau-Strep) was cloned into pET-28a(+) vector (Novagen). The constructs were transformed into E. coli BL-21(DE3) competent cells (Novagen). For GST-Fyn-SH3-Strep purification, a single colony was inoculated in Luria-Bertani (LB) broth at 37° C. overnight. 10 mL cell culture was added into 500 mL LB medium and cultured at 37° C. 0.5 mM Isopropyl β-D-1-thiogalactopyranoside (IPTG) was added into the culture when OD600 reached 0.7. Cells were further cultured at 25° C. for 4 hours and harvested. Cell pellet was resuspended in lysis buffer (20 mM Tris pH 7.9, 300 mM NaCl, 1 mM TCEP) with 1 tablet of EDTA-free protease inhibitors (ThermoFisher) and 1 mg/ml lysozyme. Cells were disrupted by sonication and debris was removed by centrifugation at 9500 rpm for 1 hour. Supernatant was loaded onto a glutathione-sepharose column (Cytiva). The column was washed in lysis buffer and protein eluted in lysis buffer containing 25 mM reduced glutathione. For His-Tau-Strep protein purification, cells were inoculated in LB broth medium and cultured at 37° C. overnight. A 10 mL overnight culture was added to 500 mL of auto-induction medium (Studier, F. W. (2005) Protein Expr Purif 41, 207-34) and cells were cultured at 37° C. for about 5 hours. The temperature was lowered to 18° C., and cells were cultured overnight. Cells were harvested and resuspended in lysis buffer with 20 mM imidazole, protease inhibitors, and lysozyme. Cells were disrupted by sonication and cell pellets were spun down at 9500 rpm for 1 hour. Supernatant was loaded onto Ni-NTA column (Cytiva) and the column was washed in lysis buffer with 20 mM imidazole. His-Tau-Strep protein was eluted in lysis buffer containing 400 mM imidazole. Both eluted GST-Fyn-SH3-Strep and His-Tau-Strep protein solutions were passed through G-25 desalting column (Cytiva) with lysis buffer and loaded onto high capacity Strep-Tactin column (IBA Lifesciences). The columns were washed in Buffer W (IBA Life sciences) and proteins were eluted in Buffer E (IBA life sciences). The eluted proteins were passed through G-25 desalting column again. […]
Purified full-length Tau and FynSH3 were dialyzed into 20 mM Tris and 150 mM NaCl, pH 8.0 with Slide-A-Lyzer G2 Dialysis Cassettes with 10K MWCO (ThermoFisher #87729). […] Protein concentrations were measured on a Nanodrop2000 (ThermoFisher) based on absorbance at 280 nm. […]

## O=C(CN1CCOc2ccccc21)Nc1nnc(-c2ccccn2)[nH]1 [compound no. 69]
Primary neurons
  Aβ-induced network hyperexcitability, multi-electrode array: prevented Aβ-induced network8hyperexcitability at both 3 and 15 μM; also recorded: ameliorates Aβ-induced network hyperexcitability
97 kinases
  kinase inhibition, panel of 97 kinases: did not inhibit Fyn or any of the 97 kinases; also recorded: is not a kinase inhibitor
full-length Tau; 25° C.
  ΔG, ITC with full-length Tau: -6.7 kcal/mol
  ΔH, ITC with full-length Tau: -1.5 kcal/mol
full-length Tau; 25° C., read-out: Kd, ITC with full-length Tau
  Kd: 11.9 µM
full-length Tau; one set of sites model
  n, ITC with full-length Tau: 0.9
